Drawing on ChEMBL document CHEMBL5291721, “A preclinical secondary pharmacology resource illuminates target-adverse drug reaction associations of marketed drugs” (Nat Commun, 2023), this text covers AC50 for seven compounds.

Some results are limits rather than exact numbers.

The target in test [1] is Histamine H2 receptor (Homo sapiens, UniProt P25021). The class given is functional, cell-based.
In test [2] the target is T1, 5-hydroxytryptamine receptor 3A (Homo sapiens, UniProt P46098).
T1 sequence (P46098 whole entry): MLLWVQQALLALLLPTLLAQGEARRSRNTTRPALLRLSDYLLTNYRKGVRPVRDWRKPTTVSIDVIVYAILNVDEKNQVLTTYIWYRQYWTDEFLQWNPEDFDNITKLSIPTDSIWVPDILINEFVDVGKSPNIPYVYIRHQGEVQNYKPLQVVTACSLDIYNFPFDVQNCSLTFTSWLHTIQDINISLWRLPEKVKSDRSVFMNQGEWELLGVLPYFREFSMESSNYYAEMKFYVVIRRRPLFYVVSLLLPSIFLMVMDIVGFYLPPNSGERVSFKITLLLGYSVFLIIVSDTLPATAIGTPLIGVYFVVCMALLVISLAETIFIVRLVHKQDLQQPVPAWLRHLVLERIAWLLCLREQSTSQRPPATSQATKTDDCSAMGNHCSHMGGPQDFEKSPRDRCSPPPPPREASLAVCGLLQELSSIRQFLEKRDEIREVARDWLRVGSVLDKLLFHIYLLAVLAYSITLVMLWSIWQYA
Type of test: functional.

The target of test [3] is T2, Adenosine receptor A1 (Homo sapiens, UniProt P30542).
T2 sequence (P30542 whole entry): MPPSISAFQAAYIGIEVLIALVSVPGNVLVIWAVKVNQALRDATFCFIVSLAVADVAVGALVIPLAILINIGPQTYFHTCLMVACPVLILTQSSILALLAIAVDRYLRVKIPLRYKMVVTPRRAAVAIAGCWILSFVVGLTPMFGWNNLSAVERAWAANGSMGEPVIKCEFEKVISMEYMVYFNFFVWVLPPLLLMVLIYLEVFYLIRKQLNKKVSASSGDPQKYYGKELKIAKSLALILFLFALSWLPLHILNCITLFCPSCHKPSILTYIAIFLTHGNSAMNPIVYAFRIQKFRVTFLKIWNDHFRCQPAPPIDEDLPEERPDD

The target of test [4] is Glutamate receptor ionotropic, NMDA 1 (Rattus norvegicus, UniProt P35439).
Test [5] has as its target T3, Alpha-1A adrenergic receptor (Homo sapiens, UniProt P35348).
T3 sequence (P35348 whole entry): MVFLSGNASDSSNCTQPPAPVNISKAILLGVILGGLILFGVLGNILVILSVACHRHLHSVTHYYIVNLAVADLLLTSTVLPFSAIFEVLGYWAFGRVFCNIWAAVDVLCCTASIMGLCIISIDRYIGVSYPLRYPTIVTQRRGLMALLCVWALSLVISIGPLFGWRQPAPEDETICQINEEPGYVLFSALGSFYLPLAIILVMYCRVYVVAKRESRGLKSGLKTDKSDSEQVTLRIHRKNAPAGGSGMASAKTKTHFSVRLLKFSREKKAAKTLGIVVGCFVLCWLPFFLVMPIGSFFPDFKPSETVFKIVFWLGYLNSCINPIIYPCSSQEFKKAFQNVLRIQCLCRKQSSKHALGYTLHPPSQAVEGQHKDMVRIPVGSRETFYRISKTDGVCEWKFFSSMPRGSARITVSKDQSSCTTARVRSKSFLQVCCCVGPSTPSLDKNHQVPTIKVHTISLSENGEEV
Type of test: functional, cell-based.

In test [6] the target is cGMP-inhibited 3',5'-cyclic phosphodiesterase 3A (Homo sapiens, UniProt Q14432). Type of test: functional.
cGMP-inhibited 3',5'-cyclic phosphodiesterase 3A, sequence (Q14432 whole entry): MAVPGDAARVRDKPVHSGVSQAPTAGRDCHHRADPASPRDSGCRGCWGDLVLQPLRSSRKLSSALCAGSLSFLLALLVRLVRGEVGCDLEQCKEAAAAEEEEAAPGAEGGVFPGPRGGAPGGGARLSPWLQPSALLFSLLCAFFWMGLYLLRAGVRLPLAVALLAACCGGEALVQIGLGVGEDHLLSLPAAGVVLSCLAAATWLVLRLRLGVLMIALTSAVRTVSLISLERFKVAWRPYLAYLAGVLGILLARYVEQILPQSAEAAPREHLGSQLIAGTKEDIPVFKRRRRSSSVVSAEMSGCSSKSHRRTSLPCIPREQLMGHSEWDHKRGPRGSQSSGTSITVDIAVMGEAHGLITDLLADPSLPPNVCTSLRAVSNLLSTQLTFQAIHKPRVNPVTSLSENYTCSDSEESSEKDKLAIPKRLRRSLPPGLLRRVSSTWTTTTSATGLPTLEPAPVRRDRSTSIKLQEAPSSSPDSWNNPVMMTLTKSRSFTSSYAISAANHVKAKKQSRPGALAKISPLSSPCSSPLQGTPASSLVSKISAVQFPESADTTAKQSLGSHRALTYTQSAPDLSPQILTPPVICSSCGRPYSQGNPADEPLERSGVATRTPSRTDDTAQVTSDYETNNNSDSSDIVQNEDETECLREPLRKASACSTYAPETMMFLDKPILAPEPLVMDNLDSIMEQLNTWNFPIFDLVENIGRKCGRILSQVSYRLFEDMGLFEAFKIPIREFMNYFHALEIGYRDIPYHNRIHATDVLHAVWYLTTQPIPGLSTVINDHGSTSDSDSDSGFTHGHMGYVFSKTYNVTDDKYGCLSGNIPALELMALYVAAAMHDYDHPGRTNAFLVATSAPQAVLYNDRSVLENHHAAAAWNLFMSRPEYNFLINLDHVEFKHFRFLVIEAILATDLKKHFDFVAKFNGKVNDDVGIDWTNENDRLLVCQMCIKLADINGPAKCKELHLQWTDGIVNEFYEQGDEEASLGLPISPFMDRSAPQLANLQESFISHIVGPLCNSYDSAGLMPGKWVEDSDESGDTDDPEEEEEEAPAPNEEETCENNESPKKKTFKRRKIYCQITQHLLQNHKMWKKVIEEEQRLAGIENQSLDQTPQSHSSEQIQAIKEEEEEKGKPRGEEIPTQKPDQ
Test [7] addresses Cannabinoid receptor 1 (Homo sapiens, UniProt P21554).
For test [8], the target named is Neuronal acetylcholine receptor subunit alpha-4 (Homo sapiens, UniProt P43681).
Neuronal acetylcholine receptor subunit alpha-4, sequence (P43681 whole entry): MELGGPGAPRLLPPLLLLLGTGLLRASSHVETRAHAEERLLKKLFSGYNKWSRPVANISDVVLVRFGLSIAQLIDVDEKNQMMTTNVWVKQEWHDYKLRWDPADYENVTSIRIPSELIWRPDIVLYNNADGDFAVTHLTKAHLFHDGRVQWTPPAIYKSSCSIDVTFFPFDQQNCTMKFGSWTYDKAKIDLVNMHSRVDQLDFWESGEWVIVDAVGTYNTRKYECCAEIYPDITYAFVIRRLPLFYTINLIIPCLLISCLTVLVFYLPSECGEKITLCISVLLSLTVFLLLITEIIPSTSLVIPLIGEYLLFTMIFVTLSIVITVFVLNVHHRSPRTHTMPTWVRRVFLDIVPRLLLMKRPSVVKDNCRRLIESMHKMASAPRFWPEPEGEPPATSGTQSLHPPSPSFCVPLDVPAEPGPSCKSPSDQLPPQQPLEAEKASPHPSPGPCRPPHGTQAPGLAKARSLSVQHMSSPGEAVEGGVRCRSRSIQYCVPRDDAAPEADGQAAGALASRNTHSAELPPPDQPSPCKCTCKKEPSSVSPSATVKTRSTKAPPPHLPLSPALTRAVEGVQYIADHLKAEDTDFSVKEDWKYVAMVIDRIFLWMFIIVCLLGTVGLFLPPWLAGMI
Test [9] deals with Melanocortin receptor 3 (Homo sapiens, UniProt P41968).
Melanocortin receptor 3, sequence (P41968 whole entry): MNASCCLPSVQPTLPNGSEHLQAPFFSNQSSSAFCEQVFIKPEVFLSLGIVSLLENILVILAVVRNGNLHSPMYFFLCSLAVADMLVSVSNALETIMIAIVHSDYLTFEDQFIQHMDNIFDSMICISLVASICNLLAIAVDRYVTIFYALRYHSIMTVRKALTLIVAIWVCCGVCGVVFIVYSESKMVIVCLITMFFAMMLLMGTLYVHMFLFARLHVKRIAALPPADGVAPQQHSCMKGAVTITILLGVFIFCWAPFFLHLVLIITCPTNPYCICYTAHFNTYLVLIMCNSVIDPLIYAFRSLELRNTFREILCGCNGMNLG
The target in test [10] is Beta-2 adrenergic receptor (Homo sapiens, UniProt P07550).
Beta-2 adrenergic receptor, sequence (P07550 whole entry): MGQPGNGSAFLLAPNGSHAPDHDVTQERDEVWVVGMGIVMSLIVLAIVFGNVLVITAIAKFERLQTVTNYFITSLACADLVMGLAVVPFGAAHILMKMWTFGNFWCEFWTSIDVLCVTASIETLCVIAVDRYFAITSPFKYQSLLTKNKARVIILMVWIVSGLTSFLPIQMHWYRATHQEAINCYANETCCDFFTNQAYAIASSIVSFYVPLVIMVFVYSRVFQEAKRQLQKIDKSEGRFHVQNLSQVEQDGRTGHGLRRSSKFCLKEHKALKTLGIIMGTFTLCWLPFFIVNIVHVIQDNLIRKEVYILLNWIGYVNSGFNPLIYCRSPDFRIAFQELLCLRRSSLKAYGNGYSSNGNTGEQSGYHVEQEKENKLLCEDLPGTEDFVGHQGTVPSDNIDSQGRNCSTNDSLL
In test [11] the target is Vasopressin V1a receptor (Homo sapiens, UniProt P37288).
Vasopressin V1a receptor, sequence (P37288 whole entry): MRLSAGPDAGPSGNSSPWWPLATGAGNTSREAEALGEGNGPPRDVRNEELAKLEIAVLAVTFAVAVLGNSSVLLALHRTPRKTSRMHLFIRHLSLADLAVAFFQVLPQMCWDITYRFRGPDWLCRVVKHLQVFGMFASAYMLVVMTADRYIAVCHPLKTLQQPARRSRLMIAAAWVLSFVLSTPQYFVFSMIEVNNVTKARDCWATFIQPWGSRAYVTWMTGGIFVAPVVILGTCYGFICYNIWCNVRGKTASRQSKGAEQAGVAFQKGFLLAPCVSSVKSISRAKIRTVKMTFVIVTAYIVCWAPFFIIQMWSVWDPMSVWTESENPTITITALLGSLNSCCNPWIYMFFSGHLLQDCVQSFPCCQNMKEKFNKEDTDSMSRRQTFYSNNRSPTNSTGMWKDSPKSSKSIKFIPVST
For test [12], the target named is T4, Endothelin-1 receptor (Homo sapiens, UniProt P25101).
T4 sequence (P25101 whole entry): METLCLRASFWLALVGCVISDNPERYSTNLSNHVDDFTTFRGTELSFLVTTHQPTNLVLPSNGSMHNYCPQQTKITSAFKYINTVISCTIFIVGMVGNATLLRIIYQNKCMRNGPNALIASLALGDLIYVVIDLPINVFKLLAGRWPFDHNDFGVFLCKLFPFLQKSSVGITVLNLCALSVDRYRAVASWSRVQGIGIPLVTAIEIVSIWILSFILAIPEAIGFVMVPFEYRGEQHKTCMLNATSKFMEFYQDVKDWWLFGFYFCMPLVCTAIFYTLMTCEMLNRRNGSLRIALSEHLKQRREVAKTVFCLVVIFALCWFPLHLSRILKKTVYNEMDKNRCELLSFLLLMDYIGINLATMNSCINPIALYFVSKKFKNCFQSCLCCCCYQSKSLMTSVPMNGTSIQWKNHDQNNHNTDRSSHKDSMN

Test [13] addresses T5, Alpha-2A adrenergic receptor (Homo sapiens, UniProt P08913).
T5 sequence (P08913 whole entry): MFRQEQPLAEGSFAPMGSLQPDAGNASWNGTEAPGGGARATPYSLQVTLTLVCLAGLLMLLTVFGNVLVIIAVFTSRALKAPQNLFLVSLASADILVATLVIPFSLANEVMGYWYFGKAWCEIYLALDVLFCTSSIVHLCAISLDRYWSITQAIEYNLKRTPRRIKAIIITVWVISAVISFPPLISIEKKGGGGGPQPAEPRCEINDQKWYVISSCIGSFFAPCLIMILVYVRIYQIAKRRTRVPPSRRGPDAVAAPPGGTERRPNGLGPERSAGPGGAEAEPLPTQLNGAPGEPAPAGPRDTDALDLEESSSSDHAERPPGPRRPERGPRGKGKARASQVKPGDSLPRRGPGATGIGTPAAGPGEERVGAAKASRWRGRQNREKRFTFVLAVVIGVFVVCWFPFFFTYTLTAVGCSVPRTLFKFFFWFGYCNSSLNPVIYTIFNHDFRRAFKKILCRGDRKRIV
The class given is functional, cell-based.
Further: assay procedure not described here.

Cannabinoid receptor 1, sequence (P21554 whole entry): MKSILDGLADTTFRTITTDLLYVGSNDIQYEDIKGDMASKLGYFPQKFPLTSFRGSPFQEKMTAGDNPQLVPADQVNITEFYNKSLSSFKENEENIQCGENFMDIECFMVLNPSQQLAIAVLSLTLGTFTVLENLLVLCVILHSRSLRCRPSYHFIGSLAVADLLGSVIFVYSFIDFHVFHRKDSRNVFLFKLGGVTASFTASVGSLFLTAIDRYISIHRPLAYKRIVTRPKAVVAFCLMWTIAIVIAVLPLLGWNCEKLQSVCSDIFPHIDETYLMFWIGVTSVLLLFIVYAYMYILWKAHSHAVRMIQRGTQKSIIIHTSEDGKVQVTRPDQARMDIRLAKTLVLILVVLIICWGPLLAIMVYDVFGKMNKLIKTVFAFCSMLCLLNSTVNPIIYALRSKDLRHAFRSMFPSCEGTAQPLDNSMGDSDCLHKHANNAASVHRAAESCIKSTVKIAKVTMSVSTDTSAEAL
Histamine H2 receptor, sequence (P25021 whole entry): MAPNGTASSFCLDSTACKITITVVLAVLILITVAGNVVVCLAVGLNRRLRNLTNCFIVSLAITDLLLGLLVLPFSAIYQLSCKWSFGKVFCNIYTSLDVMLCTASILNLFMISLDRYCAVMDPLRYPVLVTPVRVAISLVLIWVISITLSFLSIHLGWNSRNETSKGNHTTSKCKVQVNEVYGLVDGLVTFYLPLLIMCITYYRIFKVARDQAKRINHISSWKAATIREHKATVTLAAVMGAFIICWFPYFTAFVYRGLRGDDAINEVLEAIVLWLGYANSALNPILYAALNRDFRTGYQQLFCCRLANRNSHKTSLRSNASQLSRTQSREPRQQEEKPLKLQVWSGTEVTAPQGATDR

One may read the AC50 as the concentration giving half of the maximal activity seen. Low values mean activity at low concentration, high ones activity only at high concentration. For `Cc1onc(-c2ccccc2)c1-c1ccc(S(N)(=O)=O)cc1` [VALDECOXIB], the AC50 in [1] is above 10 µM; in test [2], above 30 µM; in [3], 27.7 µM; in test [4] it was above 10 µM; in [5], above 30 µM; in test [6], above 30 µM. In addition, the AC50 in test [7] is above 10 µM; in [8] it was above 30 µM; in [9] it was above 30 µM; in test [10] it was 21.1 µM; in test [11], above 30 µM; in test [12], above 30 µM. The AC50 in test [13] is above 10 µM.

With `N[C@@H](CC(=O)N1CCn2c(nnc2C(F)(F)F)C1)Cc1cc(F)c(F)cc1F` [SITAGLIPTIN], the AC50 in test [2] is above 30 µM; in test [3], above 30 µM; in test [4], above 10 µM; in test [5] it was above 30 µM; in [6], above 30 µM; in test [7], above 10 µM. The AC50 in test [8] is above 30 µM; in [9], above 30 µM; in test [10] it was above 10 µM; in test [11], above 30 µM; in test [12], above 30 µM; in test [13], above 30 µM.

`O=C1CCc2cc(OCCCCc3nnnn3C3CCCCC3)ccc2N1` [CILOSTAZOL]: the AC50 in test [1] is above 30 µM; in test [2], above 30 µM; in test [3], above 30 µM; in [4], above 30 µM; in [5], above 30 µM; in test [6], 0.424 µM. The AC50 in test [7] is above 10 µM; in [8] it was above 30 µM; in test [9], above 30 µM; in [10] it was above 30 µM; in test [12] it was above 30 µM; in test [13], above 30 µM.

As to `CC(C(=O)O)c1ccc2c(c1)[nH]c1ccc(Cl)cc12` (stereo not given) [CARPROFEN], the AC50 in [1] was above 10 µM; in test [2] it was above 30 µM; in test [3] it was above 30 µM; in test [4] it was above 10 µM; in [6], above 30 µM; in test [7], above 10 µM. In addition, the AC50 in [8] was above 30 µM; in test [9] it was above 30 µM; in test [10] it was above 10 µM; in test [11], above 30 µM; in test [12], above 10 µM; in [13] it was above 10 µM.

As to `COc1ccccc1OCCNCC(O)COc1cccc2[nH]c3ccccc3c12` (stereo not given) [CARVEDILOL], the AC50 in test [1] is above 10 µM; in test [2], above 10 µM; in test [3] it was above 30 µM; in test [4] it was 5.09 µM; in [5], above 30 µM; in test [6], above 30 µM. The AC50 is above 10 µM in test [7]; above 30 µM in test [8]; 28.8 µM in test [9]; above 30 µM in test [11]; above 30 µM in test [12]; 3.09 µM in [13].

Take `CCCN(CCC)C(=O)Cc1c(-c2ccc(Cl)cc2)nc2ccc(Cl)cn12` [ALPIDEM]: the AC50 in test [1], in test [2], in [3], in [4], in test [6] and in test [7] was above 30 µM each time. For the same compound, the AC50 in test [8] was above 30 µM; in test [9], above 30 µM; in test [10], above 30 µM; in test [11], above 30 µM; in test [12], above 10 µM; in [13], above 30 µM.

Consider `COc1cc2nc(N3CCN(C(=O)C4CCCO4)CC3)nc(N)c2cc1OC` (stereo not given) [TERAZOSIN], for which the concentration at half-maximal activity (AC50) is above 10 µM in test [1]; above 10 µM in test [2]; above 30 µM in [3]; above 10 µM in [4]; above 30 µM in test [6]; above 10 µM in [7]. Besides, the concentration at half-maximal activity (AC50) in [8] is above 10 µM; in test [9], above 30 µM; in [10], above 10 µM; in test [11], above 10 µM; in test [12], above 30 µM; in test [13], above 30 µM.
